Laboratory results: article PMC12169608, “Peptidomimetic Phenoxymethyl Ketone Warheads as Potent Dual-Mode Inhibitors against SARS-CoV‑2 M^pro and Cathepsin” (Journal of Medicinal Chemistry, 2025)
Read-outs that look alike come from different tables or passages of the source.

How the values were obtained:
in vitro [1] = conditions: African green monkey
[2] = hamster, in vivo, ip, 100 mg/kg
[3] = system: luciferase-expressing VSV (ΔG) pseudotyped with Spike from SARS-CoV-2; assay: microbe, parasite or virus in culture; type: cell-based; conditions: Vesicular stomatitis virus, Vero C1008, read-out: Entry reporter assay pEC50 (converted)
[4] = 3 h, 2 µM
hamster CTSL = hamster CTSL (Mesocricetus auratus, UniProt Q812A7); assay: hamster CTSL biochemical assay
Chain of hamster CTSL (Q812A7 entry or part of it): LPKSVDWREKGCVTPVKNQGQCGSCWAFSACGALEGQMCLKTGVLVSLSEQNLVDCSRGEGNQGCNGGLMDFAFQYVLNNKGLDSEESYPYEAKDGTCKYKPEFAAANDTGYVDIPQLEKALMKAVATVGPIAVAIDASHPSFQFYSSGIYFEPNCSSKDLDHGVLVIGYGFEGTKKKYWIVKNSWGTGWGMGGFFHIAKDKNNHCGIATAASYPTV

physchem = conditions: pH 7.4
[5] = Hamster liver microsomal stability; conditions: microsomes, pH 7.4
[6] = Human hepatocyte stability; conditions: cryopreserved hepatocytes
trypsin = assay: Protease panel: trypsin
Calpain-1 = biological target: T1, Calpain-1 (Homo sapiens, UniProt P07384); assay: Protease panel: Calpain-1; type: biochemical
T1 construct: erythrocytes; tissue Eurofins Discovery (assay service); host or cells: human erythrocytes
T1 sequence (P07384 1-714): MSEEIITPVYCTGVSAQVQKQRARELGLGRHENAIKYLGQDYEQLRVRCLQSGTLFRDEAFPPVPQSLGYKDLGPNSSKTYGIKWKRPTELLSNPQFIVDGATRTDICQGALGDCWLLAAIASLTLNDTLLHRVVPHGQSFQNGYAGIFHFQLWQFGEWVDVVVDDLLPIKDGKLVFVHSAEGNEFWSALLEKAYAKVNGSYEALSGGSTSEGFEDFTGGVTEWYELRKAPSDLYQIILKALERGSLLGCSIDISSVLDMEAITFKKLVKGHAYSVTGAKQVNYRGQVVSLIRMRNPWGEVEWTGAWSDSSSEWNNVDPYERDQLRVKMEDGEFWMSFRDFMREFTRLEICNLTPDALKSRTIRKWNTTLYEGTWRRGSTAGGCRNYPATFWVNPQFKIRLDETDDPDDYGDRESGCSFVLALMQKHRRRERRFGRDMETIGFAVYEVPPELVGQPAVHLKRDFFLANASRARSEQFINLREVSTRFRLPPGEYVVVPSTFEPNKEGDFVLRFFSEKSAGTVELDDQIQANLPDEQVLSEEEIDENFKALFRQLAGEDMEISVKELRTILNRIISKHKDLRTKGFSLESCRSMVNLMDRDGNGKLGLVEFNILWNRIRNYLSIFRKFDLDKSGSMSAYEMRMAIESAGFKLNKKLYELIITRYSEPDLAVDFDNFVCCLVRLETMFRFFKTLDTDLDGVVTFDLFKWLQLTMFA
T1 sequence (P04632 1-268 partner): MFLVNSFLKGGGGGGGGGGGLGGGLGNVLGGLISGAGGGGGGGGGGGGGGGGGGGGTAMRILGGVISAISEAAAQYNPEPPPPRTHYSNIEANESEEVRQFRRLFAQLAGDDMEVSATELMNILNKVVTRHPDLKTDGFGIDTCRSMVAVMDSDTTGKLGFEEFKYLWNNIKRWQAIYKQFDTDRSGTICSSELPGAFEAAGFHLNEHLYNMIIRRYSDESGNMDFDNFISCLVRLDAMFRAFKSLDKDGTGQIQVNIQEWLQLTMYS

[7] = biological target: T2, human cathepsin L (hCTSL) (Homo sapiens, UniProt P07711); assay: hCTSL biochemical assay
T2 construct: purchased R&D Systems
T2 sequence (P07711 114-333): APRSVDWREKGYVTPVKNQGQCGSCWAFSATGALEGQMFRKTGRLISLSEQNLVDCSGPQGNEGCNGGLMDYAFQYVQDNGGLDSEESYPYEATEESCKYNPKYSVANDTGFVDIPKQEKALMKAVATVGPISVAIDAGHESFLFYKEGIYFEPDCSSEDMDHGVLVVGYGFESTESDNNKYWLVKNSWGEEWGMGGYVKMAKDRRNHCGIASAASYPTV

Caspase 2 = biological target: T3, Caspase 2 (Homo sapiens, UniProt P42575); assay: Protease panel: Caspase 2; type: biochemical
T3 construct: purchased Eurofins Discovery (assay service); host or cells: E. coli
T3 sequence (P42575 170-325 limits assumed): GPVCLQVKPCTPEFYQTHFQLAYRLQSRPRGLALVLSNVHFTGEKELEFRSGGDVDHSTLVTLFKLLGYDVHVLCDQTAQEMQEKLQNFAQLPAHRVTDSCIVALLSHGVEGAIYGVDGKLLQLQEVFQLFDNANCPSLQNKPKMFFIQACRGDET
T3 sequence (P42575 348-452 limits assumed): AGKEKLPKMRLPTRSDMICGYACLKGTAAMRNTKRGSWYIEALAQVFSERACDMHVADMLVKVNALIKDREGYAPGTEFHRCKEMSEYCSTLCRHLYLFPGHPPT

[8] = Human liver microsomal stability; conditions: microsomes, pH 7.4
in vitro [9] = conditions: mouse, plasma, mouse plasma protein binding
Neutrophil Elastase 2 = biological target: T4, Neutrophil Elastase 2 (Homo sapiens, UniProt P08246); assay: Protease panel: Neutrophil Elastase 2; type: biochemical
T4 construct: neutrophils; tissue Eurofins Discovery (assay service); host or cells: human neutrophils
T4 sequence (P08246 30-267): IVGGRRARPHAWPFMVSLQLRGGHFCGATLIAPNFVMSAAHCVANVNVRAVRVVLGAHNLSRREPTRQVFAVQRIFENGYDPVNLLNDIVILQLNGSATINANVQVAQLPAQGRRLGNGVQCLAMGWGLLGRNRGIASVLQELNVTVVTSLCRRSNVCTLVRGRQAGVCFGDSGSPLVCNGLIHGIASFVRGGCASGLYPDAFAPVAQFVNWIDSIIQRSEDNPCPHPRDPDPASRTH

in vitro [10] = conditions: mouse, hepatocytes; for hepatocyte CLint at 2 h, 2 µM: CLint (mouse hepatocytes)
in vitro [11] = conditions: hamster, microsomes, pH 7.4
in vitro [12] = conditions: human, microsomes, pH 7.4
[13] = Hamster hepatocyte stability; conditions: cryopreserved hepatocytes; for half-life at 2 h, 2 µM: t1/2 (hamster hepatocytes), without ritonavir
in vitro [14] = conditions: hamster, hepatocytes; for hepatocyte CLint at 2 h, 4 µM: CLint (hamster hepatocytes + ritonavir 4:1); for hepatocyte CLint at 2 h, 2 µM: CLint (hamster hepatocytes)
[15] = Mouse hepatocyte stability; conditions: mouse, cryopreserved hepatocytes
in vitro [16] = conditions: human, hepatocytes
[17] = % remaining at 120 min (hamster hepatocytes, compound/ritonavir 1:1)
[18] = % remaining at 120 min (hamster hepatocytes, compound/ritonavir 2:1)
[19] = CLint (hamster hepatocytes, compound/ritonavir 1:1)
[20] = CLint (hamster hepatocytes, compound/ritonavir 2:1)
[21] = t1/2 (hamster hepatocytes, compound/ritonavir 1:1)
[22] = t1/2 (hamster hepatocytes, compound/ritonavir 2:1)

Row | Compound | CC50 (in vitro [1]) | EC50 [3] | mouse plasma protein binding, fraction bound (Fb) [4] | pIC50 (hamster CTSL) (hamster CTSL) | logD at 1 h (physchem) | half-life at 1 µM [5] | half-life at 2 h, 2 µM [6] | Trypsin inhibition at 10 μM (trypsin) | inhibition at 10 µM (Calpain-1) | hCTSL biochemical assay pIC50 [7] | inhibition at 10 µM (Caspase 2) | half-life [8] | fraction unbound at 3 h, 2 µM (in vitro [9]; fraction bound (Fb)) | fraction unbound at 3 h, 2 µM (in vitro [9]; fraction unbound (Fu)) | inhibition at 10 µM (Neutrophil Elastase 2) | hepatocyte CLint at 2 h, 2 µM (in vitro [10]) | microsomal CLint at 1 µM (in vitro [11]) | remaining at 1 h, 1 µM (in vitro [11]) | microsomal CLint (in vitro [12]) | remaining at 1 h (in vitro [12]) | further results
1 | CC(C)(O)c1c(F)c(F)c(OCC(=O)[C@H](C[C@@H]2CCNC2=O)NC(=O)[C@@H]2[C@@H]3[C@H](CN2C(=O)[C@@H](NC(=O)C(F)(F)F)C(C)(C)C)C3(C)C)c(F)c1F [compound 14, (1R,2S,5S)-3-((S)-3,3-Dimethyl-2-(2,2,2-trifluoroacetamido)butanoyl)-6,6-dimethyl-N-((S)-3-oxo-1-((S)-2-oxopyrrolidin-3-yl)-4-(2,3,5,6-tetrafluoro-4-(2-hydroxypropan-2-yl)phenoxy)butan-2-yl)-3-azabicyclo[3.1.0]hexane-2-carboxamide] | > 501 nM | > 30200 nM | 99.24% | 4.67 ± 0.33 | 2.52 | 1.73 min | 105 min | 10.2 ± 3.3% | -7% | < 4.30 | 7% | 35 min | 0.0076 | 0.0076 | 4% | 112 µL/min/1e6 cells | 377 µL/min/mg | 0.1% | 40 µL/min/mg | 30.2% | clinical signs upon intraperitoneal dosing ([2]; female, Syrian golden): the animals were found dull and lethargic 15 min up until 45 min postdosing; hCTSL activity (in words) ([7]; biochemical assay): no hCTSL and hCTSB activity was observed; hepatocyte CLint at 1 µM (in vitro [10]; CLint (mouse hepatocytes + ritonavir 4:1)): 26.7 µL/min/1e6 cells; half-life at 2 h, 2 µM [13]: 11.2 min; half-life at 1 µM ([13]; with ritonavir 0.25 µM (compound/ritonavir 4:1), t1/2 (hamster hepatocytes + ritonavir 4:1), compound/ritonavir 4:1): 15.5 min; remaining at 2 h, 1 µM (in vitro [14]; [17]): 28.8%; remaining at 2 h, 1 µM (in vitro [14]; [18]): 4.42%; hepatocyte CLint at 2 h, 4 µM (in vitro [14]): 44.7 µL/min/1e6 cells; hepatocyte CLint at 2 h, 2 µM (in vitro [14]): 62.1 µL/min/1e6 cells; hepatocyte CLint at 1 µM (in vitro [14]; [19]): 9.3 µL/min/1e6 cells; hepatocyte CLint at 1 µM (in vitro [14]; [20]): 25.4 µL/min/1e6 cells; half-life at 1 µM (in vitro [14]; [21]): 74.5 min; half-life at 1 µM (in vitro [14]; [22]): 27.2 min; half-life at 1 µM [15]: 15.5 min; hepatocyte CLint at 2 h, 2 µM (in vitro [16]): 6.6 µL/min/1e6 cells
2 | COc1cccc2[nH]c(C(=O)N[C@@H](Cc3cccc(F)c3)C(=O)N[C@@H](C[C@@H]3CCNC3=O)C(=O)COc3c(F)c(F)c(CO)c(F)c3F)cc12 [compound 1, N-((S)-3-(3-Fluorophenyl)-1-oxo-1-(((S)-3-oxo-1-((S)-2-oxopyrrolidin-3-yl)-4-(2,3,5,6-tetrafluoro-4-(hydroxymethyl)phenoxy)butan-2-yl)amino)propan-2-yl)-4-methoxy-1H-indole-2-carboxamide] | > 1000 nM | 2510 nM | 98.06% | 8.34 ± 0.09 | 1.65 | 0.58 min | 55.5 min | -3.4 ± 9.0% | 3% | 7.54 | 11% | 4.04 min | 0.0194 | 0.0194 | 2% | 186 µL/min/1e6 cells | 2370 µL/min/mg | 0% | 350 µL/min/mg | 0% | clinical signs upon intraperitoneal dosing [2]: no clinical signs have been observed; half-life at 2 h, 2 µM [13]: 7.9 min; remaining at 2 h, 1 µM (in vitro [14]; [17]): 2.51%; remaining at 2 h, 1 µM (in vitro [14]; [18]): 0.56%; hepatocyte CLint at 2 h, 4 µM (in vitro [14]): 77.1 µL/min/1e6 cells; hepatocyte CLint at 2 h, 2 µM (in vitro [14]): 87.6 µL/min/1e6 cells; hepatocyte CLint at 1 µM (in vitro [14]; [19]): 31.4 µL/min/1e6 cells; hepatocyte CLint at 1 µM (in vitro [14]; [20]): 48.1 µL/min/1e6 cells; half-life at 2 h, 4 µM (in vitro [14]; t1/2 (hamster hepatocytes + ritonavir 4:1)): 9 min; half-life at 1 µM (in vitro [14]; [21]): 22.1 min; half-life at 1 µM (in vitro [14]; [22]): 14.4 min; half-life at 1 µM [15]: 9.3 min; hepatocyte CLint at 2 h, 2 µM (in vitro [16]): 12.5 µL/min/1e6 cells
